The numbers were not newly measured in EP3409275B1, “COMPOSITION FOR PREVENTION AND/OR TREATMENT OF DISEASES ASSOCIATED TO HYPERALGESIA” (Neilos S.r.l., priority 2017, dated 2018), which cites them from elsewhere.

In general, EC50 refers to the concentration needed to bring the measured effect to its halfway point.

Series [1] deals with GPR55 orphan receptor (Homo sapiens, UniProt Q9Y2T6). Particulars: activation of GPR55.
The conditions of series [2]: mice, curcumin 40 mg/kg, phenylbutazone at similar doses.
The conditions of series [3]: 2 g of curcumin with 20 mg of piperine, healthy volunteers.

GPR55 orphan receptor, sequence (Q9Y2T6 whole entry): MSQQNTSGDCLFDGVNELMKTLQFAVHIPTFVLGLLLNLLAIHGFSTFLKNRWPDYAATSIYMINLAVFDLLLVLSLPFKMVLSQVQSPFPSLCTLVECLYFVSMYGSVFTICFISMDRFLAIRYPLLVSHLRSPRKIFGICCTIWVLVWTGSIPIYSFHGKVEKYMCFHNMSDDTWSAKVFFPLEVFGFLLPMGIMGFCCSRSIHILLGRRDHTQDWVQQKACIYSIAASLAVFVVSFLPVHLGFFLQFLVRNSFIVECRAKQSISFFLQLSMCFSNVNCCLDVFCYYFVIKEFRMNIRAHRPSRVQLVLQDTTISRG

For `CCCCCCCCCCCCCCCC(=O)NCCO` [PEA, N-(2-hydroxyethyl) hexadecanamide], the EC50 in series [1] was 4 nM. In addition, the removal half-life entry (in vivo) is recorded as “about 12 minutes”. Also, where the note is “oral administration”, the “area under the curve of PEA plasmatic level (AUC1-8h)” value is reported as 6525 ± 1372 ng PEA min ml-1 and the tmax was 15 min. For the same compound, the “maximum plasmatic concentration (Cmax)” value (oral administration, Wistar rats) is reported as 420 ± 132 nm.
For the compound `CCCCC1C(=O)N(c2ccccc2)N(c2ccccc2)C1=O` [phenylbutazone], the ulcerogenic index in series [2] is 1.70.
Regarding `O=C(/C=C/C=C/c1ccc2c(c1)OCO2)N1CCCCC1` [piperine], the “increase in oral bioavailability of curcumin” value in series [3] is recorded as 20 times.
